Results published in PubChem BioAssay (NCI).
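Each compound was tested at five concentrations against cells in 96-well plates for 48 hours. TGI: total growth inhibition.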

Tests used:
Test in all cases: DTP human tumour cell line panel, 48 h
[1] = system: HOP-92 NSCLC
[2] = system: SK-MEL-5 melanoma
[3] = system: UACC-257 melanoma
[4] = system: EKVX NSCLC
[5] = system: RPMI-8226 leukemia
[6] = system: MDA-MB-231 breast
[7] = system: OVCAR-3 ovarian
[8] = system: ACHN renal
[9] = system: SN12C renal
[10] = system: IGROV1 ovarian
[11] = system: OVCAR-8 ovarian
[12] = system: HT29 colon
[13] = system: HCT-15 colon
[14] = system: SW-620 colon
[15] = system: 786-0 renal
[16] = system: HCC-2998 colon
[17] = system: SK-OV-3 ovarian
[18] = system: M14 melanoma
[19] = system: NCI-H522 lung
[20] = system: NCI-H23 lung
[21] = system: K-562 leukemia
[22] = system: SNB-19 CNS
[23] = system: LOX IMVI melanoma
[24] = system: SK-MEL-2 melanoma
[25] = system: PC-3 prostate
[26] = system: OVCAR-5 ovarian
[27] = system: RXF 393 renal
[28] = system: SF-295 CNS
[29] = system: UO-31 renal
[30] = system: MDA-N
[31] = system: A549 NSCLC
[32] = system: KM12 colon
[33] = system: UACC-62 melanoma
[34] = system: TK-10 renal
[35] = system: MDA-MB-435
[36] = system: NCI-H226 lung
[37] = system: OVCAR-4 ovarian
[38] = system: COLO 205 colon
[39] = system: NCI-H460 lung
[40] = system: U251 CNS
[41] = system: DU-145 prostate
[42] = system: SNB-75 CNS
[43] = system: BT-549 breast
[44] = system: HS 578T breast
[45] = system: MALME-3M melanoma
[46] = system: CAKI-1 renal
[47] = system: SR leukemia
[48] = system: NCI/ADR-RES ovarian
[49] = system: HOP-62 NSCLC
[50] = system: SF-539 CNS
[51] = system: T-47D breast
[52] = system: HL-60(TB) leukemia
[53] = system: HCT-116 colon
[54] = system: MCF7 breast
[55] = system: SF-268 CNS
[56] = system: MOLT-4 leukemia
[57] = system: A498 renal
[58] = system: SK-MEL-28 melanoma

In the case of `Cc1ccc(NC(c2ccccc2)P(=O)(c2ccccc2)c2ccccc2)cc1` (stereo not drawn), the TGI [1] is reported as 67.4 µM, the TGI [2] is reported as greater than 100 µM and the TGI [3] is reported as greater than 100 µM. For the same compound, the TGI [4] was greater than 100 µM, the TGI [5] was greater than 100 µM and the TGI [6] was greater than 100 µM. The TGI [7] was greater than 100 µM, the TGI [8] was greater than 100 µM and the TGI [9] was greater than 100 µM. It also gave a TGI [10] greater than 100 µM, a TGI [11] greater than 100 µM and a TGI [12] greater than 100 µM. It also gave a TGI [13] greater than 100 µM, a TGI [14] greater than 100 µM and a TGI [15] greater than 100 µM. It also gave a TGI [16] greater than 100 µM, a TGI [17] greater than 100 µM and a TGI [18] greater than 100 µM. For the same compound, the TGI [19] was greater than 100 µM, the TGI [20] was greater than 100 µM and the TGI [21] was greater than 100 µM. For the same compound, the TGI [22] was greater than 100 µM, the TGI [23] was greater than 100 µM and the TGI [24] was greater than 100 µM. It also gave a TGI [25] greater than 100 µM, a TGI [26] greater than 100 µM and a TGI [27] greater than 100 µM. It also gave a TGI [28] greater than 100 µM, a TGI [29] greater than 100 µM and a TGI [30] greater than 100 µM. It also gave a TGI [31] greater than 100 µM, a TGI [32] greater than 100 µM and a TGI [33] greater than 100 µM. For the same compound, the TGI [34] was greater than 100 µM, the TGI [35] was greater than 100 µM and the TGI [36] was greater than 100 µM. The TGI [37] was greater than 100 µM, the TGI [38] was greater than 100 µM and the TGI [39] was greater than 100 µM. It also gave a TGI [40] greater than 100 µM, a TGI [41] greater than 100 µM and a TGI [42] of 41.3 µM. The TGI [43] was greater than 100 µM, the TGI [44] was greater than 100 µM and the TGI [45] was greater than 100 µM. For the same compound, the TGI [46] was greater than 100 µM, the TGI [47] was greater than 100 µM and the TGI [48] was greater than 100 µM. It also gave a TGI [49] greater than 100 µM, a TGI [50] greater than 100 µM and a TGI [51] greater than 100 µM. It also gave a TGI [52] greater than 100 µM, a TGI [53] greater than 100 µM and a TGI [54] greater than 100 µM. The TGI [55] was greater than 100 µM, the TGI [56] was greater than 100 µM and the TGI [57] was greater than 100 µM. It also gave a TGI [58] greater than 100 µM.
